Experimental data reported in patent publication US20240138411A1, “METHOD OF […] OF SUGARCANE” (CORTEVA AGRISCIENCE LLC, priority 2021, published 2024).

System: sugarcane
Assay: Sugarcane flowering inhibition field trials, floral induction rated on UFSCar scale
Format: in vivo
Description: In order to explore the activity of florpyrauxifen as flowering inhibitor in sugarcane, field studies were carried out. Florpyrauxifen-benzyl was tested at rates from 2 to 20 grams active ingredient per hectare (g ai/ha) and compared to Ethrel® 720 (Bayer), the standard treatment. The flowering inhibition effect was assessed by checking the floral induction in sugarcane through the percentage scale recommended by UFSCar (Federal University of Sao Carlos, Sao Paulo, Brazil).
Four trials were carried out in sugarcane where florpyrauxifen-benzyl (Rinskor®), applied at a rate of 2 to 20 g ai/ha, was compared to ethephon (Ethrel® 720) applied at a rate of 475 g ai/ha. Control plots of untreated sugarcane were also evaluated. Rinskor® and Ethrel® 720 were diluted in water and a single application for each study (backpack sprayer) was performed delivering 50 L of spray solution per ha at the reproductive stage of sugarcane and at a maximum 150 days before harvest. The activity of florpyrauxifen-benzyl as a flowering inhibitor was measured via assessments (Scale of flowering inhibition—see chart 1) performed at 0, 14, 30, 45, 60, 75, 90, 120, 150 days after application, or up to harvest time. The assessments were measured in sugarcane stems, rating the flowering induction according to the UFSCar scale shown below. Significance of treatment effect was evaluated with F-approximate test (α=0.1) and least square means from different treatments were compared with Tukey's test.

SMILES: COc1c(Cl)ccc(-c2nc(C(=O)OCc3ccccc3)c(Cl)c(N)c2F)c1F [Rinskor, florpyrauxifen-benzyl]
- % Referring to Scale (Table 1, 120 DAA, 20 g ai/ha): 12.8%
- Frequency 1/1 (0%) (Table 1, 120 DAA, 20 g ai/ha): 15.0%
- Frequency 2/1 (15%) (Table 1, 120 DAA, 20 g ai/ha): 85.0%
- Frequency 3/1 (30%) (Table 1, 120 DAA, 20 g ai/ha): 0.0%
- Frequency 4/1 (50%) (Table 1, 120 DAA, 20 g ai/ha): 0.0%
- Frequency 4/2 (80%) (Table 1, 120 DAA, 20 g ai/ha): 0.0%
- Frequency 4/3 (90%) (Table 1, 120 DAA, 20 g ai/ha): 0.0%
- Frequency 4/4 (100%) (Table 1, 120 DAA, 20 g ai/ha): 0.0%
- % Referring to Scale (Table 2, 75 DAA, 2 g ai/ha): 1.1%
- Frequency 1/1 (0%) (Table 2, 75 DAA, 2 g ai/ha): 92.5%
- Frequency 2/1 (15%) (Table 2, 75 DAA, 2 g ai/ha): 7.5%
- Frequency 3/1 (30%) (Table 2, 75 DAA, 2 g ai/ha): 0.0%
- Frequency 4/1 (50%) (Table 2, 75 DAA, 2 g ai/ha): 0.0%
- Frequency 4/2 (80%) (Table 2, 75 DAA, 2 g ai/ha): 0.0%
- Frequency 4/3 (90%) (Table 2, 75 DAA, 2 g ai/ha): 0.0%
- Frequency 4/4 (100%) (Table 2, 75 DAA, 2 g ai/ha): 0.0%
- % Referring to Scale (Table 2, 75 DAA, 5 g ai/ha): 0.8%
- Frequency 1/1 (0%) (Table 2, 75 DAA, 5 g ai/ha): 95.0%
- Frequency 2/1 (15%) (Table 2, 75 DAA, 5 g ai/ha): 5.0%
- Frequency 3/1 (30%) (Table 2, 75 DAA, 5 g ai/ha): 0.0%
- Frequency 4/1 (50%) (Table 2, 75 DAA, 5 g ai/ha): 0.0%
- Frequency 4/2 (80%) (Table 2, 75 DAA, 5 g ai/ha): 0.0%
- Frequency 4/3 (90%) (Table 2, 75 DAA, 5 g ai/ha): 0.0%
- Frequency 4/4 (100%) (Table 2, 75 DAA, 5 g ai/ha): 0.0%
- % Referring to Scale (Table 2, 75 DAA, 7 g ai/ha): 0.8%
- Frequency 1/1 (0%) (Table 2, 75 DAA, 7 g ai/ha): 95.0%
- Frequency 2/1 (15%) (Table 2, 75 DAA, 7 g ai/ha): 5.0%
- Frequency 3/1 (30%) (Table 2, 75 DAA, 7 g ai/ha): 0.0%
- Frequency 4/1 (50%) (Table 2, 75 DAA, 7 g ai/ha): 0.0%
- Frequency 4/2 (80%) (Table 2, 75 DAA, 7 g ai/ha): 0.0%
- Frequency 4/3 (90%) (Table 2, 75 DAA, 7 g ai/ha): 0.0%
- Frequency 4/4 (100%) (Table 2, 75 DAA, 7 g ai/ha): 0.0%
- % Referring to Scale (Table 2, 75 DAA, 10 g ai/ha): 0.4%
- Frequency 1/1 (0%) (Table 2, 75 DAA, 10 g ai/ha): 97.5%
- Frequency 2/1 (15%) (Table 2, 75 DAA, 10 g ai/ha): 2.5%
- Frequency 3/1 (30%) (Table 2, 75 DAA, 10 g ai/ha): 0.0%
- Frequency 4/1 (50%) (Table 2, 75 DAA, 10 g ai/ha): 0.0%
- Frequency 4/2 (80%) (Table 2, 75 DAA, 10 g ai/ha): 0.0%
- Frequency 4/3 (90%) (Table 2, 75 DAA, 10 g ai/ha): 0.0%
- Frequency 4/4 (100%) (Table 2, 75 DAA, 10 g ai/ha): 0.0%
- % Referring to Scale (Table 2, 75 DAA, 15 g ai/ha): 1.1%
- Frequency 1/1 (0%) (Table 2, 75 DAA, 15 g ai/ha): 92.5%
- Frequency 2/1 (15%) (Table 2, 75 DAA, 15 g ai/ha): 7.5%
- Frequency 3/1 (30%) (Table 2, 75 DAA, 15 g ai/ha): 0.0%
- Frequency 4/1 (50%) (Table 2, 75 DAA, 15 g ai/ha): 0.0%
- Frequency 4/2 (80%) (Table 2, 75 DAA, 15 g ai/ha): 0.0%
- Frequency 4/3 (90%) (Table 2, 75 DAA, 15 g ai/ha): 0.0%
- Frequency 4/4 (100%) (Table 2, 75 DAA, 15 g ai/ha): 0.0%
- % Referring to Scale (Table 2, 75 DAA, 20 g ai/ha): 0.8%
- Frequency 1/1 (0%) (Table 2, 75 DAA, 20 g ai/ha): 95.0%
- Frequency 2/1 (15%) (Table 2, 75 DAA, 20 g ai/ha): 5.0%
- Frequency 3/1 (30%) (Table 2, 75 DAA, 20 g ai/ha): 0.0%
- Frequency 4/1 (50%) (Table 2, 75 DAA, 20 g ai/ha): 0.0%
- Frequency 4/2 (80%) (Table 2, 75 DAA, 20 g ai/ha): 0.0%
- Frequency 4/3 (90%) (Table 2, 75 DAA, 20 g ai/ha): 0.0%
- Frequency 4/4 (100%) (Table 2, 75 DAA, 20 g ai/ha): 0.0%
- % Referring to Scale (Table 2, 90 DAA, 2 g ai/ha): 60.3%
- Frequency 1/1 (0%) (Table 2, 90 DAA, 2 g ai/ha): 0.0%
- Frequency 2/1 (15%) (Table 2, 90 DAA, 2 g ai/ha): 0.0%
- Frequency 3/1 (30%) (Table 2, 90 DAA, 2 g ai/ha): 20.0%
- Frequency 4/1 (50%) (Table 2, 90 DAA, 2 g ai/ha): 32.5%
- Frequency 4/2 (80%) (Table 2, 90 DAA, 2 g ai/ha): 47.5%
- Frequency 4/3 (90%) (Table 2, 90 DAA, 2 g ai/ha): 0.0%
- Frequency 4/4 (100%) (Table 2, 90 DAA, 2 g ai/ha): 0.0%
- % Referring to Scale (Table 2, 90 DAA, 5 g ai/ha): 43.5%
- Frequency 1/1 (0%) (Table 2, 90 DAA, 5 g ai/ha): 0.0%
- Frequency 2/1 (15%) (Table 2, 90 DAA, 5 g ai/ha): 0.0%
- Frequency 3/1 (30%) (Table 2, 90 DAA, 5 g ai/ha): 32.5%
- Frequency 4/1 (50%) (Table 2, 90 DAA, 5 g ai/ha): 67.5%
- Frequency 4/2 (80%) (Table 2, 90 DAA, 5 g ai/ha): 0.0%
- Frequency 4/3 (90%) (Table 2, 90 DAA, 5 g ai/ha): 0.0%
- Frequency 4/4 (100%) (Table 2, 90 DAA, 5 g ai/ha): 0.0%
- % Referring to Scale (Table 2, 90 DAA, 7 g ai/ha): 44.8%
- Frequency 1/1 (0%) (Table 2, 90 DAA, 7 g ai/ha): 0.0%
- Frequency 2/1 (15%) (Table 2, 90 DAA, 7 g ai/ha): 0.0%
- Frequency 3/1 (30%) (Table 2, 90 DAA, 7 g ai/ha): 37.5%
- Frequency 4/1 (50%) (Table 2, 90 DAA, 7 g ai/ha): 55.0%
- Frequency 4/2 (80%) (Table 2, 90 DAA, 7 g ai/ha): 7.5%
- Frequency 4/3 (90%) (Table 2, 90 DAA, 7 g ai/ha): 0.0%
- Frequency 4/4 (100%) (Table 2, 90 DAA, 7 g ai/ha): 0.0%
- % Referring to Scale (Table 2, 90 DAA, 10 g ai/ha): 37.4%
- Frequency 1/1 (0%) (Table 2, 90 DAA, 10 g ai/ha): 0.0%
- Frequency 2/1 (15%) (Table 2, 90 DAA, 10 g ai/ha): 7.5%
- Frequency 3/1 (30%) (Table 2, 90 DAA, 10 g ai/ha): 50.0%
- Frequency 4/1 (50%) (Table 2, 90 DAA, 10 g ai/ha): 42.5%
- Frequency 4/2 (80%) (Table 2, 90 DAA, 10 g ai/ha): 0.0%
- Frequency 4/3 (90%) (Table 2, 90 DAA, 10 g ai/ha): 0.0%
- Frequency 4/4 (100%) (Table 2, 90 DAA, 10 g ai/ha): 0.0%
- % Referring to Scale (Table 2, 90 DAA, 15 g ai/ha): 39.8%
- Frequency 1/1 (0%) (Table 2, 90 DAA, 15 g ai/ha): 0.0%
- Frequency 2/1 (15%) (Table 2, 90 DAA, 15 g ai/ha): 15.0%
- Frequency 3/1 (30%) (Table 2, 90 DAA, 15 g ai/ha): 25.0%
- Frequency 4/1 (50%) (Table 2, 90 DAA, 15 g ai/ha): 60.0%
- Frequency 4/2 (80%) (Table 2, 90 DAA, 15 g ai/ha): 0.0%
- Frequency 4/3 (90%) (Table 2, 90 DAA, 15 g ai/ha): 0.0%
- Frequency 4/4 (100%) (Table 2, 90 DAA, 15 g ai/ha): 0.0%
- % Referring to Scale (Table 2, 90 DAA, 20 g ai/ha): 46.0%
- Frequency 1/1 (0%) (Table 2, 90 DAA, 20 g ai/ha): 0.0%
- Frequency 2/1 (15%) (Table 2, 90 DAA, 20 g ai/ha): 5.0%
- Frequency 3/1 (30%) (Table 2, 90 DAA, 20 g ai/ha): 30.0%
- Frequency 4/1 (50%) (Table 2, 90 DAA, 20 g ai/ha): 52.5%
- Frequency 4/2 (80%) (Table 2, 90 DAA, 20 g ai/ha): 12.5%
- Frequency 4/3 (90%) (Table 2, 90 DAA, 20 g ai/ha): 0.0%
- Frequency 4/4 (100%) (Table 2, 90 DAA, 20 g ai/ha): 0.0%
- % Referring to Scale (Table 2, 120 DAA, 2 g ai/ha): 95.8%
- Frequency 1/1 (0%) (Table 2, 120 DAA, 2 g ai/ha): 0.0%
- Frequency 2/1 (15%) (Table 2, 120 DAA, 2 g ai/ha): 0.0%
- Frequency 3/1 (30%) (Table 2, 120 DAA, 2 g ai/ha): 0.0%
- Frequency 4/1 (50%) (Table 2, 120 DAA, 2 g ai/ha): 0.0%
- Frequency 4/2 (80%) (Table 2, 120 DAA, 2 g ai/ha): 5.0%
- Frequency 4/3 (90%) (Table 2, 120 DAA, 2 g ai/ha): 32.5%
- Frequency 4/4 (100%) (Table 2, 120 DAA, 2 g ai/ha): 62.5%
- % Referring to Scale (Table 2, 120 DAA, 5 g ai/ha): 96.5%
